Legend:
[1] = system: mice; assay: Toxicity after oral administration to mice (lethality); type: in vivo; settings: orally administered to mice in a dose of 300 mg/kg
Description: The compound (I), the pharmacologically acceptable salt thereof, or the pure stereoisomeric form thereof has hypoglycemic and hypolipidemic activities. Further, the compound (I), the pharmacologically acceptable salt thereof or the pure stereoisomeric form thereof has low toxicity. […] Therefore, the compound (I), its pharmacologically acceptable salt or pure stereoisomeric form can be used for treatment of diabetes of mammals including man as it is or by combining with a known pharmacologically acceptable carrier, excipient, filler and the like.

[2] = system: KKA^y-mice; assay: Hypoglycemic and hypolipidemic activities in mice; type: in vivo; settings: 0.005% by weight in chow diet, given freely for 4 days, KKA^y-mice (male, 9 to 10 weeks old); for Hypoglycemic activity (%): % reduction of blood sugar level from control groups, glucose oxidase method; for Hypolipidemic activity (%): % reduction of plasma lipid level from control groups, Kit Cleantech TG-S
Method: Test compounds were mixed with laboratory chow diet (CE-2, Clea Japan Inc., Tokyo, Japan) in a proportion of 0.005% by weight. The dietary admixture was given freely to KKA^y-mice (male, 9 to 10 weeks old) for 4 days. During the period, water was given freely. Blood was collected from the orbitral venous plexus. The blood sugar level was determined according to glucose oxidase method. The plasma lipid level was enzymatically determined by using Kit Cleantech TG-S (Iatron, Tokyo, Japan). Values represent % reduction from control groups.

| SMILES | lethality [1] | Hypoglycemic activity (%) [2] | Hypolipidemic activity (%) [2] |
| --- | --- | --- | --- |
| CC(=O)c1ccc(CCOc2ccc(CC3SC(=O)NC3=O)cc2)nc1 (stereo not drawn) [Example 2, 5-[4-[2-(5-acetyl-2-pyridyl)ethoxy]benzyl]-2,4-thiazolidinedione] | no lethal case was observed | 56% | 43% |
| CC(O)c1ccc(CCOc2ccc(CC3SC(=O)NC3=O)cc2)nc1 (stereo not drawn) [Example 1, 5-[4-[2-[5-(l-hydroxyethyl)-2-pyridyl]ethoxy]benzyl]-2,4-thiazolidinedione] | no lethal case was observed | 46% | 5% |

— EP0579733B1, “THIAZOLIDINEDIONE DERIVATIVES, PRODUCTION AND USE THEREOF” (priority 1991, dated 1992)
